The test system of experiment [1] is mouse pancreatic tissues (islet β cells). The experiment in a line: Histopathology of pancreas of high-fat fed mice (HE, ERK immunohistochemistry, immunofluorescence). It is filed as in vivo. On the procedure: In order to detect a blood glucose homeostasis level and an insulin function of each mouse, an oral glucose tolerance test (OGTT) for the mice was performed. At the night before this test, test mice were fasted but not water for 16 h and transferred from a feeding room to a clean experimental operation room, so that the animals could adapt to the environment. Before the OGTT started, a weight of each mouse was accurately weighed, and an injection dose of glucose was calculated according to 2 mg/g body weight, and a tail was cut for collecting blood at 0 minute, 15 minutes, 30 minutes, 60 minutes and 120 minutes after intragastric injection of the glucose. A first drop of blood after tail cutting was discarded, and then concentrations of blood glucose (mmol/L) were continuously detected using an Accu-Chek blood glucose meter (Roche diagnosis, USA). The test mice were fasted for 12 h at the night before sampling, and were anesthetized by intraperitoneal injection of a 10% chloral hydrate-containing solution. After the intraperitoneal cavities of the mice were cut, blood was collected by apical blood collection, and the test mice were killed. After being collected, blood samples were left for still standing for 2 h at the room temperature, and then centrifuged for 15 min at […], serum at the upper layer was sucked, and then biochemical detection was performed immediately. After the blood samples were collected, pancreatic tissues of the mice were immediately cut off so as to prevent pancreatic dissolution, and heads and tails of pancreas were separately stored. Then other tissues of the mice were extracted. Pictures of tissue morphologies of various parts of the mice were photographed and stored, and weights of tissues were weighed and precisely recorded. Subsequently, the extracted tissues were divided into two parts, one of the two parts was sub-packed into an EP tube, immediately rapidly frozen in liquid nitrogen and then transferred to a −80° C. refrigerator for cryopreservation; and the other part was sub-packed into an EP tube containing 4% paraformaldehyde to be fixed for making pathological tissue sections later.
(§1) During the subsequent test, in order to observe pathological morphologies of animal tissues, paraffin sections of mouse tissues were made and subjected to HE staining, immunohistochemical staining and immunofluorescence staining. Also, mouse pancreatic tail tissues in a valeric acid intervention group and a control group were taken out from the −80° C. refrigerator and underwent TMT labeled quantitative proteome detection of the animal tissues, and differential proteins were subjected to a Western Blot test and a real-time fluorescence quantitative polymerase chain reaction (QRT PCR) test for the animal tissues to verify test results.

For experiment [2], the system named is PI3k/Pdpk1/Akt insulin metabolic pathway. The experiment in a line: WB and ELISA of key proteins of PI3k/Pdpk1/Akt insulin metabolic pathway in mouse pancreatic tissues. It is filed as in vivo, mice. The settings on record: p value <0.05. On the procedure:
as §1
A general note: In an ELISA, binding on a coated surface is turned into a signal by an enzyme label.

Structures are written as SMILES.

Turning to `CCCCC(=O)O` [valeric acid], the “proportion of ERK positive areas” value in experiment [1] (ERK staining of paraffin sections) is given as “increased significantly”. In experiment [1] (HE staining, HF-V group), the islet areas result was “obviously enlarged”, the number of islets entry was “increased” and the “number of β cells in the islet” value is “significantly increased”. Further, the “number of Ki67 stained nuclei in the pancreas” value in experiment [1] (insulin/Ki67/DAPI immunofluorescence) is “increased significantly”. In addition, the “secretion proportion of the insulin in the pancreas” value in experiment [1] (insulin/glucagon/DAPI immunofluorescence) was “increased significantly”. Also, in experiment [2], the “expression level of Akt” value was “significantly increased”, the “expression level of PIPS” value was “significantly increased”, the “expression level of Pdpk1” value is reported as “significantly increased” and the “expression level of mTOR” value is recorded as “significantly increased”. Besides, in experiment [2], the “expression level of p-Akt” value was “significantly increased” and the “expression level of p-mTOR” value is “significantly increased”.

The values are drawn from patent US20240024262A1, “USE OF VALERIC ACID IN PREPARATION OF DRUG FOR PREVENTING AND TREATING DIABETES” (Harbin Medical University, priority 2022, published 2024).
